Data set [1] addresses T1, Caspase-1 (Homo sapiens, UniProt P29466).
T1 sequence (P29466 whole entry): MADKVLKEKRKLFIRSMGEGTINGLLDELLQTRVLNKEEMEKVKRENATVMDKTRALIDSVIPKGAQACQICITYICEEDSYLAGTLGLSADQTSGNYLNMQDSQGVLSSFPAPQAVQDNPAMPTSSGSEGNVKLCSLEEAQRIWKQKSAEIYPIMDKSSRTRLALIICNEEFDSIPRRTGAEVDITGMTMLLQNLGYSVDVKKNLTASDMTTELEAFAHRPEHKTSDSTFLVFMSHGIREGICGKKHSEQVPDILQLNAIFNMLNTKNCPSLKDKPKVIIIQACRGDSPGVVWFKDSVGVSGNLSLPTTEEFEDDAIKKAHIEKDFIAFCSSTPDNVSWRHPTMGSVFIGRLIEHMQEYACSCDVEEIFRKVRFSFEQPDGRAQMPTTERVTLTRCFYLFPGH
Put plainly: Inhibition of human recombinant caspase1 expressed in Escherichia coli using AC-WEHD-AMC as substrate after 20 mins by fluorescence assay.

Data set [2] in a line: Fraction unbound in human plasma at 5 uM after 4 hrs by LC-MS/MS-based equilibrium dialysis method. Format: ADME, cell-free.
Data set [3] is described as follows: Lipophilicity, log D of the compound at pH 6.5 by chromatographic method. Particulars: buffer. Format: physicochemical.
Data set [4] addresses T1, Caspase-1. The data set can be described thus: Inhibition of caspase1 in human THP1 cells assessed as LPS/ATP-induced IL-1beta release preincubated for 24 hrs in presence of LPS measured after overnight incubation by HTRF assay. Type of data set: cell-based. (In general: Time-resolved FRET reads energy transfer from a long-lived donor to a nearby acceptor.)

Drawing on ChEMBL document CHEMBL4184170, “New Caspase-1 inhibitor by scaffold hopping into bio-inspired 3D-fragment space” (Bioorg Med Chem Lett, 2017), this text covers IC50, fraction unbound and chromatographic logD for 3 compounds.

What is called IC50 is the concentration at which inhibition is half-maximal. For orientation: fraction unbound means free concentration divided by total concentration. A lower fraction unbound goes with little free substance. By chromatographic logD is commonly meant a lipophilicity value derived from retention on a column. A low value points to lower lipophilicity. In the case of `CC(C)[C@H](NC(=O)c1ccc2ccccc2c1)C(=O)N1[C@H]2CC[C@](O)(CC2)[C@H]1C(=O)N[C@H]1CC(=O)OC1O` (stereo partly specified), the values for the IC50 at Caspase-1 [1] and at Caspase-1 [4] were 17 nM and 86 nM, respectively. This compound returned an unbound share (fraction unbound) at 4 h, 5 µM in data set [2] of 0.12. Moreover, the chromatographic logD in data set [3] stood at 2.1.

Consider `CC(C)(C)[C@H](NC(=O)c1ccc(N)c(Cl)c1)C(=O)N1CCC[C@H]1C(=O)N[C@H]1CC(=O)OC1O` (stereo partly specified), for which the IC50 at Caspase-1 [1] was 5 nM.

On to `O=C1C[C@H](NC(=O)[C@@H]2CC[C@@H]3CCCC[C@H](NC(=O)c4nccc5ccccc45)C(=O)N32)C(O)O1` (stereo partly specified), for which, at Caspase-1 [1], the IC50 is 11 nM.
